Laboratory results published in patent publication US8968453B2, “Anthrapyridone sulfonic acid compounds and their preparation methods and applications” (Zhuhai Ninestar Management Co., Ltd., priority 2011, dated 2015).
Each block holds one compound with its values, some of them ahead of it.

Assays:
Assay type in all cases: physicochemical
[1] = Printed images light resistance test with xenon lamp; conditions: grade of color difference ΔE; ink with 6 portions dye on glossy photo paper; xenon lamp 0.36 W/m^2, 50 h, 60% RH, 24° C.
Excerpt: (§1) Prepare the ink composition of Table 8 with the product obtained in Embodiment 1-11 as the coloring agent, and filter the ink composition with 0.45 μm membrane filter to obtain the magenta ink composition of the present invention. Add ion exchange water and triethanolamine to adjust the pH value of the ink composition to 8-10 and the weight to 100 portions. By the same methods, prepare ink compositions with control sulfonic-group-free anthrone dyes Dye1 and Dye2, hydrolytic derivatives of commercial dye C.I. reactive red 180 (reactive red 180 for short) and C.I. direct red 227 for comparison.
(§2) Use an ink-jet printer (Epson 270 manufactured by Epson Company), glossy photo paper (Epson) and the above described ink compositions for ink-jet printing.
(1) Printed Images Light Resistance Test with Xenon Lamp
Irradiate the printed glossy photo paper manufactured by Canon and Epson with Xenon-lamp Weathering Test Chamber ZG-P (manufactured by China Surui Company) at 60% RH and 24° C. with illuminance of 0.36 W/m^2 for 50 h to test the color difference (ΔE) before and after the test. The color difference (ΔE) is calculated from the differences of values of L*, a*, b* before and after the test in the above described color measurement system (Unterlab) by the followings formula: ΔE=((difference of L*)^2+(difference of a*)^2+(difference of b*)^2)^1/2.
Three grades will be divided for the evaluation based on the following benchmark: • ΔE<10 ∘ • ΔE<20 Δ • ΔE>20 x

[2] = Gas (ozone) resistance of the printed images; conditions: grade of color difference ΔE; ink with 6 portions dye on glossy photo paper; 40 ppm ozone, 60% RH, 24° C.
Excerpt: Prepare the ink composition of Table 8 with the product obtained in Embodiment 1-11 as the coloring agent, and filter the ink composition with 0.45 μm membrane filter to obtain the magenta ink composition of the present invention. Add ion exchange water and triethanolamine to adjust the pH value of the ink composition to 8-10 and the weight to 100 portions. By the same methods, prepare ink compositions with control sulfonic-group-free anthrone dyes Dye1 and Dye2, hydrolytic derivatives of commercial dye C.I. reactive red 180 (reactive red 180 for short) and C.I. direct red 227 for comparison. Use an ink-jet printer (Epson 270 manufactured by Epson Company), glossy photo paper (Epson) and the above described ink compositions for ink-jet printing. (2) Gas Resistance of the Printed Images Place the printed images in the Ozone Weathering Test Chamber (manufactured by China Surui Company) at 60% RH, 24° C. and 40 ppm ozone. Calculated the color difference (ΔE) before and after the test by the same method as described in (1) above and evaluate it in 3 grades based on the following benchmark: • ΔE<10 ∘ • ΔE<20 Δ • ΔE>20 x

[3] = Wet resistance of the printed images; parameters: key: No bleeding ∘; Slight bleeding Δ; Notable bleeding x; conditions: bleeding judged by bare eyes; 50° C., 90% RH, 168 h
Excerpt: as §1, §2
(3) Wet Resistance of the Printed Images
Place the printed images in the Constant Temperature and Humidity Chamber (manufactured by China Surui Company) at 50° C. and 90% RH for 168 h; judge the bleeding of the ink by bare eyes before and after the test and evaluate it in 3 grades based on the following benchmark: • No bleeding ∘ • Slight bleeding Δ • Notable bleeding x

[4] = Evaluation of solubility and solution stability; parameters: key: No precipitation ∘; Slight precipitation Δ; Notable x; conditions: 20 portions dye, 70 portions water, 10 portions ethylene glycol; 50° C. 7 d, then 0° C. 7 d; precipitation on filtering
Protocol: (D) Evaluation of Solubility and Solution Stability
Heat and dissolve the system of 20 portions of dyes, 70 portions of water and 10 portions of ethylene glycol; after the solution cools down, store it airtight at a constant temperature of 50° C. for 7 d; cool it down and store it at 0° C. for 7 d; filter the solution and evaluate it in 3 grades based on the following benchmark: • No precipitation ∘ • Slight precipitation Δ • Notable x

SMILES: CCN(CC)CCS(=O)(=O)c1ccc(S(=O)(=O)O)c(Nc2cc(S(=O)(=O)O)c3[nH]c(=O)c(C(=O)c4cccc(S(=O)(=O)O)c4)c4c3c2C(=O)c2ccccc2-4)c1 [Dye B2]
UV resistance of printed images [1]: ∘ (ΔE<10 ∘)
Ozone resistance of printed images [2]: ∘ (ΔE<10 ∘)
Water resistance of printed images [3]: ∘
Solubility and stability of dyes in aqueous solvent system [4]: ∘

SMILES: CCN(CC)CCS(=O)(=O)c1cc(Nc2cc(S(=O)(=O)O)c3[nH]c(=O)c(C(=O)c4cccc(S(=O)(=O)O)c4)c4c3c2C(=O)c2ccccc2-4)c(S(=O)(=O)O)cc1S(=O)(=O)O [Dye B4]
UV resistance of printed images [1]: ∘ (ΔE<10 ∘)
Ozone resistance of printed images [2]: ∘ (ΔE<10 ∘)
Water resistance of printed images [3]: ∘
Solubility and stability of dyes in aqueous solvent system [4]: ∘

SMILES: O=S(=O)([O-])c1cc(Nc2nc(Nc3ccc(/C=C/c4ccc(Nc5nc(Nc6cc(S(=O)(=O)[O-])cc7cc(S(=O)(=O)[O-])c(N=Nc8ccccc8)c(O)c67)nc(N6CCOCC6)n5)cc4S(=O)(=O)[O-])c(S(=O)(=O)[O-])c3)nc(N3CCOCC3)n2)c2c(O)c(N=Nc3ccccc3)c(S(=O)(=O)[O-])cc2c1.[Na+].[Na+].[Na+].[Na+].[Na+].[Na+] [C.I. direct red 227, reference compound]
UV resistance of printed images [1]: x (ΔE>20 x)
Ozone resistance of printed images [2]: x (ΔE>20 x)
Water resistance of printed images [3]: Δ
Solubility and stability of dyes in aqueous solvent system [4]: Δ

SMILES: O=C(c1cccc(S(=O)(=O)O)c1)c1c2c3c(c(Nc4cc(S(=O)(=O)CCSCCCS(=O)(=O)O)c(S(=O)(=O)O)cc4S(=O)(=O)O)cc(S(=O)(=O)O)c3[nH]c1=O)C(=O)c1ccccc1-2 [Dye B3]
UV resistance of printed images [1]: ∘ (ΔE<10 ∘)
Ozone resistance of printed images [2]: ∘ (ΔE<10 ∘)
Water resistance of printed images [3]: ∘
Solubility and stability of dyes in aqueous solvent system [4]: ∘

SMILES: O=C(c1cccc(S(=O)(=O)O)c1)c1c2c3c(c(Nc4cc(S(=O)(=O)CCSCCCS(=O)(=O)O)ccc4S(=O)(=O)O)cc(S(=O)(=O)O)c3[nH]c1=O)C(=O)c1ccccc1-2 [Dye B1]
UV resistance of printed images [1]: ∘ (ΔE<10 ∘)
Ozone resistance of printed images [2]: ∘ (ΔE<10 ∘)
Water resistance of printed images [3]: ∘
Solubility and stability of dyes in aqueous solvent system [4]: ∘

SMILES: O=C(c1cccc(S(=O)(=O)O)c1)c1c2c3c(c(Nc4ccc(S(=O)(=O)O)cc4S(=O)(=O)O)cc(S(=O)(=O)O)c3[nH]c1=O)C(=O)c1ccccc1-2 [Dye C1]
UV resistance of printed images [1]: ∘ (ΔE<10 ∘)
Ozone resistance of printed images [2]: ∘ (ΔE<10 ∘)
Water resistance of printed images [3]: ∘
Solubility and stability of dyes in aqueous solvent system [4]: ∘

SMILES: CC(=O)Nc1cc(Nc2ccc3[nH]c(=O)c(C(=O)c4cccc(S(=O)(=O)O)c4)c4c3c2C(=O)c2ccccc2-4)c(S(=O)(=O)O)cc1S(=O)(=O)O [Dye2, reference compound]
UV resistance of printed images [1]: Δ (ΔE<20 Δ)
Ozone resistance of printed images [2]: Δ (ΔE<20 Δ)
Water resistance of printed images [3]: ∘
Solubility and stability of dyes in aqueous solvent system [4]: Δ

SMILES: CCN(CC)CCS(=O)(=O)c1ccc(S(=O)(=O)O)c(Nc2ccc3[nH]c(=O)c(C(=O)c4cccc(S(=O)(=O)O)c4)c4c3c2C(=O)c2ccccc2-4)c1 [Dye1, reference compound]
UV resistance of printed images [1]: Δ (ΔE<20 Δ)
Ozone resistance of printed images [2]: Δ (ΔE<20 Δ)
Water resistance of printed images [3]: ∘
Solubility and stability of dyes in aqueous solvent system [4]: Δ

Further lines, results first:

UV resistance of printed images [1]: ∘ (ΔE<10 ∘)
Ozone resistance of printed images [2]: ∘ (ΔE<10 ∘)
Water resistance of printed images [3]: ∘
Solubility and stability of dyes in aqueous solvent system [4]: ∘
SMILES: O=C(O)c1cc(Oc2nc(Nc3cc(Nc4cc(S(=O)(=O)O)c5[nH]c(=O)c(C(=O)c6cccc(S(=O)(=O)O)c6)c6c5c4C(=O)c4ccccc4-6)c(S(=O)(=O)O)cc3S(=O)(=O)O)nc(N(CCO)CCO)n2)cc(C(=O)O)c1 [Dye D2]

UV resistance of printed images [1]: ∘ (ΔE<10 ∘)
Ozone resistance of printed images [2]: ∘ (ΔE<10 ∘)
Water resistance of printed images [3]: ∘
Solubility and stability of dyes in aqueous solvent system [4]: ∘
SMILES: O=C(O)c1cc(Oc2nc(Nc3cc(Nc4cc(S(=O)(=O)O)c5[nH]c(=O)c(C(=O)c6cccc(S(=O)(=O)O)c6)c6c5c4C(=O)c4ccccc4-6)c(S(=O)(=O)O)cc3S(=O)(=O)O)nc(Oc3cc(C(=O)O)cc(C(=O)O)c3)n2)cc(C(=O)O)c1 [Dye D1]

UV resistance of printed images [1]: ∘ (ΔE<10 ∘)
Ozone resistance of printed images [2]: Δ (ΔE<20 Δ)
Water resistance of printed images [3]: ∘
Solubility and stability of dyes in aqueous solvent system [4]: Δ
SMILES: Cc1ccc(S(=O)(=O)Nc2cc(Nc3cc(S(=O)(=O)O)c4[nH]c(=O)c(C(=O)c5cccc(S(=O)(=O)O)c5)c5c4c3C(=O)c3ccccc3-5)c(S(=O)(=O)O)cc2S(=O)(=O)O)cc1 [Dye D4]

UV resistance of printed images [1]: ∘ (ΔE<10 ∘)
Ozone resistance of printed images [2]: ∘ (ΔE<10 ∘)
Water resistance of printed images [3]: ∘
Solubility and stability of dyes in aqueous solvent system [4]: ∘
SMILES: CC(=O)Nc1cc(Nc2cc(S(=O)(=O)O)c3[nH]c(=O)c(C(=O)c4cccc(S(=O)(=O)O)c4)c4c3c2C(=O)c2ccccc2-4)c(S(=O)(=O)O)cc1S(=O)(=O)O [Dye C5]

UV resistance of printed images [1]: ∘ (ΔE<10 ∘)
Ozone resistance of printed images [2]: Δ (ΔE<20 Δ)
Water resistance of printed images [3]: ∘
Solubility and stability of dyes in aqueous solvent system [4]: ∘
SMILES: CN(c1nc(Oc2cc(C(=O)O)cc(C(=O)O)c2)nc(N(CCO)CCO)n1)c1cc(S(=O)(=O)O)c(Nc2cc(S(=O)(=O)O)c3[nH]c(=O)c(C(=O)c4cccc(S(=O)(=O)O)c4)c4c3c2C(=O)c2ccccc2-4)cc1S(=O)(=O)O [Dye D3]
